According to US20230059136A1, “THE COMPOUNDS AND COMPOSITIONS FOR TREATING CONDITIONS ASSOCIATED WITH NLRP ACTIVITY” (Novartis AG, priority 2018, published 2023):
pIC50: −log10 of the molar value.

Tested on: IL-1β production in PMA-differentiated THP-1 cells
Assay: IL-1β production in PMA-differentiated THP-1 cells stimulated with gramicidin (hTHP-1 assay containing 2% fetal bovine serum)
Type: cell-based, human
Conditions: Table B1; 2% fetal bovine serum; class symbols; read-out: hTHP-1 IC50 (Average IC50 of compounds in hTHP-1 assay)
Method: Procedure 1: IL-1β Production in PMA-Differentiated THP-1 Cells Stimulated with Gramicidin.
THP-1 cells were purchased from the American Type Culture Collection and sub-cultured according to instructions from the supplier. Cells were cultured in complete RPMI 1640 (containing 10% heat inactivated FBS, penicillin (100 units/ml) and streptomycin (100 μg/ml)), and maintained in log phase prior to experimental setup. Prior to the experiment, compounds were dissolved in dimethyl sulfoxide (DMSO) to generate a 30 mM stock. The compound stock was first pre-diluted in DMSO to 3, 0.34, 0.042 and 0.0083 mM intermediate concentrations and subsequently spotted using Echo550 liquid handler into an empty 384-well assay plate to achieve desired final concentration (e.g. 100, 33, 11, 3.7, 1.2, 0.41, 0.14, 0.046, 0.015, 0.0051, 0.0017 μM). DMSO was backfilled in the plate to achieve a final DMSO assay concentration of 0.37%. The plate was then sealed and stored at room temperature until required.
THP-1 cells were treated with PMA (Phorbol 12-myristate 13-acetate) (20 ng/ml) for 16-18 hours. On the day of the experiment the media was removed and adherent cells were detached with trypsin for 5 minutes. Cells were then harvested, washed with complete RPMI 1640, spun down, and resuspended in RPMI 1640 (containing 2% heat inactivated FBS, penicillin (100 units/ml) and streptomycin (100 μg/ml). The cells were plated in the 384-well assay plate containing the spotted compounds at a density of 50,000 cells/well (final assay volume 50 μl). Cells were incubated with compounds for 1 hour and then stimulated with gramicidin (5 μM) (Enzo) for 2 hours. Plates were then centrifuged at 340 g for 5 min. Cell free supernatant (40 μL) was collected using a 96-channel PlateMaster (Gilson) and the production of IL-1β was evaluated by HTRF (cisbio). The plates were incubated for 18 h at 4° C. and read using the preset HTRF program (donor emission at 620 nm, acceptor emission at 668 nm) of the SpectraMax i3x spectrophotometer (Molecular Devices, software SoftMax 6). A vehicle only control and a dose titration of CRID3 (100-0.0017 μM) were run concurrently with each experiment.
Procedure 2: IL-1β Production in PMA-Differentiated THP-1 Cells Stimulated with Gramicidin.
THP-1 cells were purchased from the American Type Culture Collection and sub-cultured according to instructions from the supplier. Prior to experiments, cells were cultured in complete RPMI 1640 (containing 10% heat inactivated FBS, penicillin (100 units/ml) and streptomycin (100 μg/ml)), and maintained in log phase prior to experimental setup. Prior to the experiment THP-1 were treated with PMA (Phorbol 12-myristate 13-acetate) (20 ng/ml) for 16-18 hours. Compounds were dissolved in dimethyl sulfoxide (DMSO) to generate a 30 mM stock. On the day of the experiment the media was removed and adherent cells were detached with trypsin for 5 minutes. Cells were then harvested, washed with complete RPMI 1640, spun down, resuspended in RPMI 1640 (containing 2% heat inactivated FBS, penicillin (100 units/ml) and streptomycin (100 μg/ml). The cells were plated in a 384-well plate at a density of 50,000 cells/well (final assay volume 50 μl). Compounds were first dissolved in assay medium to obtain a 5× top concentration of 500 μM. 10 step dilutions (1:3) were then undertaken in assay medium containing 1.67% DMSO. 5× compound solutions were added to the culture medium to achieve desired final concentration (e.g. 100, 33, 11, 3.7, 1.2, 0.41, 0.14, 0.046, 0.015, 0.0051, 0.0017 μM). Final DMSO concentration was at 0.37%. Cells were incubated with compounds for 1 hour and then stimulated with gramicidin (5 μM) (Enzo) for 2 hours. Plates were then centrifuged at 340 g for 5 min. Cell free supernatant (40 μL) was collected using a 96-channel PlateMaster (Gilson) and the production of IL-1β was evaluated by HTRF (cisbio). A vehicle only control and a dose titration of CRID3 (100-0.0017 μM) were run concurrently with each experiment. […]

| Structure (SMILES) | pIC50 |
| --- | --- |
| CC(C)c1cc(F)cc(C(C)C)c1CC(=O)N=S(N)(=O)c1sc(C(C)(C)O)cc1F (single isomer, unassigned) [Example 51, (R)- or (S)-2-(4-fluoro-2,6-diisopropylphenyl)-N-(3-fluoro-5-(2-hydroxypropan-2-yl)thiophen-2-ylsulfonimidoyl)acetamide] | 6.00 to 6.70 |
| CC(C)c1cc(F)cc(C2CC2)c1CC(=O)N=S(N)(=O)c1sc(C(C)(C)O)cc1F (single isomer, unassigned) [Example 52, (S)- or (R)-2-(2-cyclopropyl-4-fluoro-6-isopropylphenyl)-N-(3-fluoro-5-(2-hydroxypropan-2-yl)thiophen-2-ylsulfonimidoyl)acetamide] | 7.40 to 8.10 |
| CC(C)c1cc(F)cc(C2CC2)c1CC(=O)N=S(N)(=O)c1sc(C(C)(C)O)cc1F (single isomer, unassigned) [Example 53, (R)- or (S)-2-(2-cyclopropyl-4-fluoro-6-isopropylphenyl)-N-(3-fluoro-5-(2-hydroxypropan-2-yl)thiophen-2-ylsulfonimidoyl)acetamide] | 5.30 to 6.00 |
| CC(C)c1c(F)c(C#N)cc(C2CC2)c1CC(=O)N=S(N)(=O)c1sc(C(C)(C)O)cc1F (single isomer, unassigned) [Example 54, (S)- or (R)-2-(4-cyano-6-cyclopropyl-3-fluoro-2-isopropylphenyl)-N-(3-fluoro-5-(2-hydroxypropan-2-yl)thiophen-2-ylsulfonimidoyl)acetamide] | 7.40 to 8.10 |
| CC(C)c1c(F)c(C#N)cc(C2CC2)c1CC(=O)N=S(N)(=O)c1sc(C(C)(C)O)cc1F (single isomer, unassigned) [Example 55, (R)- or (S)-2-(4-cyano-6-cyclopropyl-3-fluoro-2-isopropylphenyl)-N-(3-fluoro-5-(2-hydroxypropan-2-yl)thiophen-2-ylsulfonimidoyl)acetamide] | 5.30 to 6.00 |
| CC(C)c1cc(Cl)c(F)c(C2CC2)c1CC(=O)N=S(N)(=O)c1sc(C(C)(C)O)cc1F (single isomer, unassigned) [Example 56, (S)- or (R)-2-(4-chloro-2-cyclopropyl-3-fluoro-6-isopropylphenyl)-N-(3-fluoro-5-(2-hydroxypropan-2-yl)thiophen-2-ylsulfonimidoyl)acetamide] | 6.00 to 6.70 |
| CC(C)c1cc(Cl)c(F)c(C2CC2)c1CC(=O)N=S(N)(=O)c1sc(C(C)(C)O)cc1F (single isomer, unassigned) [Example 57, (R)- or (S)-2-(4-chloro-2-cyclopropyl-3-fluoro-6-isopropylphenyl)-N-(3-fluoro-5-(2-hydroxypropan-2-yl)thiophen-2-ylsulfonimidoyl)acetamide] | 5.30 to 6.00 |
| Cc1nc(C(C)(C)O)sc1S(N)(=O)=NC(=O)Cc1c(C(C)C)cc(C#N)cc1C(C)C (single isomer, unassigned) [Example 60, (S)- or (R)-2-(4-cyano-2,6-diisopropylphenyl)-N-(2-(2-hydroxypropan-2-yl)-4-methylthiazole-5-sulfonimidoyl)acetamide] | 6.70 to 7.40 |
| Cc1nc(C(C)(C)O)sc1S(N)(=O)=NC(=O)Cc1c(C(C)C)cc(C#N)cc1C(C)C (single isomer, unassigned) [Example 61, (R)- or (S)-2-(4-cyano-2,6-diisopropylphenyl)-N-(2-(2-hydroxypropan-2-yl)-4-methylthiazole-5-sulfonimidoyl)acetamide] | 4.52 to 5.30 |
| CC(C)c1cc(C#N)cc(C(C)C)c1CC(=O)N=S(N)(=O)c1sc(C(C)(C)O)nc1CO (single isomer, unassigned) [Example 64, N-(amino(4-(hydroxymethyl)-2-(2-hydroxypropan-2-yl)thiazol-5-yl)(oxo)-λ^6-sulfaneylidene)-2-(4-cyano-2,6-diisopropylphenyl)acetamide] | 6.00 to 6.70 |
| CC(C)c1cc(C#N)cc(C(C)C)c1CC(=O)N=S(N)(=O)c1sc(C(C)(C)O)nc1CO (single isomer, unassigned) [Example 65] | 4.52 to 5.30 |
| COCc1cc(C(C)C)c(CC(=O)N=S(N)(=O)c2sc(C(C)(C)O)nc2CO)c(C(C)C)c1 (single isomer, unassigned) [Example 68, (S)- or (R)-2-(2,6-diisopropyl-4-(methoxymethyl)phenyl)-N-(4-(hydroxymethyl)-2-(2-hydroxypropan-2-yl)thiazol-5-ylsulfonimidoyl)acetamide] | 6.00 to 6.70 |
| COCc1cc(C(C)C)c(CC(=O)N=S(N)(=O)c2sc(C(C)(C)O)nc2CO)c(C(C)C)c1 (single isomer, unassigned) [Example 69, (R)- or (S)-2-(2,6-diisopropyl-4-(methoxymethyl)phenyl)-N-(4-(hydroxymethyl)-2-(2-hydroxypropan-2-yl)thiazol-5-ylsulfonimidoyl)acetamide] | 4.52 to 5.30 |
| CC(C)c1cc(C#N)cc(C2CC2)c1CC(=O)N=S(N)(=O)c1sc(C(C)(C)O)nc1CO (single isomer, unassigned) [Example 70, (S)- or (R)-(4-cyano-2-cyclopropyl-6-isopropylphenyl)-N-(4-(hydroxymethyl)-2-(2-hydroxypropan-2-yl)thiazol-5-ylsulfonimidoyl)acetamide] | 6.00 to 6.70 |
| CC(C)c1cc(C#N)cc(C2CC2)c1CC(=O)N=S(N)(=O)c1sc(C(C)(C)O)nc1CO (single isomer, unassigned) [Example 71, (R)- or (S)-2-(4-cyano-2-cyclopropyl-6-isopropylphenyl)-N-(4-(hydroxymethyi)-2-(2-hydroxypropan-2-yl)thiazol-5-ylsulfonimidoyl)acetamide] | 4.52 to 5.30 |
| CC(C)c1cc(OC(F)F)cc(C(C)C)c1CC(=O)N=S(N)(=O)c1sc(C(C)(C)O)cc1F (single isomer, unassigned) [Example 76, (S)- or (R)-2-(4-(difluoromethoxy)-2,6-diisopropylphenyl)-N-(3-fluoro-5-(2-hydroxypropan-2-yl)thiophen-2-ylsulfonimidoyl)acetamide] | 6.70 to 7.40 |
| CC(C)c1cc(OC(F)F)cc(C(C)C)c1CC(=O)N=S(N)(=O)c1sc(C(C)(C)O)cc1F (single isomer, unassigned) [Example 77, (R)- or (S)-(4-(difluoromethoxy)-2,6-diisopropylphenyl)-N-(3-fluoro-5-(2-hydroxypropan-2-yl)thiophen-2-ylsulfonimidoyl)acetamide] | 5.30 to 6.00 |
| CCc1cc(OC(F)F)cc(C(C)C)c1CC(=O)N=S(N)(=O)c1sc(C(C)(C)O)cc1F (single isomer, unassigned) [Example 78, (S)- or (R)-2-(4-(difluoromethoxy)-2-ethyl-6-isopropylphenyl)-N-(3-fluoro-5-(2-hydroxypropan-2-yl)thiophen-2-ylsulfonimidoyl)acetamide] | 6.00 to 6.70 |
| CCc1cc(OC(F)F)cc(C(C)C)c1CC(=O)N=S(N)(=O)c1sc(C(C)(C)O)cc1F (single isomer, unassigned) [Example 79, (R)- or (S)-2-(4-(difluoromethoxy)-2-ethyl-6-isopropylphenyl)-N-(3-fluoro-5-(2-hydroxypropan-2-yl)thiophen-2-ylsulfonimidoyl)acetamide] | 4.52 to 5.30 |
| CC(C)c1cc(C(F)F)cc(C(C)C)c1CC(=O)N=S(N)(=O)c1sc(C(C)(C)O)cc1F (single isomer, unassigned) [Example 80, (S)- or (R)-2-(4-(difIuoromethyl)-2,6-diisopropylphenyl)-N-(3-fluoro-5-(2-hydroxypropan-2-yl)thiophen-2-ylsulfonimidoyl)acetamide] | 7.40 to 8.10 |
